Laboratory results taken from PMC8877448, “In Vitro and In Vivo Pharmacological Characterization of a Novel TRPM8 Inhibitor Chemotype Identified by Small-Scale Preclinical Screening” (International Journal of Molecular Sciences, 2022).
Values joined by “and” are separate entries in the source; they are usually repeats but may differ in a detail not shown here. Identical values can stand only once. Like-named read-outs stand apart in the source and are kept apart here.

How the values were obtained:
[1] = target: T1, rat isoform of TRPM8 channels (Rattus norvegicus, UniProt Q8R455); test: Ca2+ fluorometric assay, block of menthol-evoked responses in HEK293 cells stably expressing rTRPM8; assay type: cell-based; conditions: for potency compared with AMTB: calcium fluorometric assay; for Efficacy: percentage of inhibition of menthol evoked currents at the maximum concentration used (50 µM)
T1 construct: expressed in transfected cells
Procedure: The inhibitory activity of the 21 selected compounds over TRPM8 was challenged by Ca^2+ fluorometric assays using HEK293 cells stably expressing the rat isoform of TRPM8 channels. Menthol and AMTB were used as reference agonist and antagonist, respectively. The compounds were initially tested at three different concentrations (50 μM, 5 μM, and 0.5 μM) to assess their ability in blocking 100 μM menthol evoked currents.
(§1) Cells, HEK-293 cells stably expressing rTRPM8 or hTRPV1, were cultured in a monolayer in Earle’s minimum essential medium with Earle’s salts supplemented with 10% fetal calf serum, 1% nonessential amino acids, 2 mM L-glutamine, 100 µg streptomycin/mL, 100 U penicillin/mL, and 0.4 µg/mL puromycin (referred to as Puro-EMEM) and kept at 37 °C in a humidified atmosphere of 5% CO2 in a suitable incubator (STERI-CyCLE CO2 Incubator Hepa Class 100, Thermo Electrón Corporation, Waltham, MA, USA). Cells were stored under liquid nitrogen and used for 15 generations from unfreezing.
For fluorometric experiments, HEK-293 cells stably expressing rTRPM8 or hTRPV1 were detached by means of Trypsin/EDTA solution, resuspended in DMEM-10%FCS and seeded at a concentration of 2 × 10^4 cells/mL.
(§2) Briefly human embryonic kidney cell line (HEK) stably transfected with rTRPM8 or hTRPV1 were seeded in 96-well plates at a cell density of 30,000 cells. After 2 days the medium was replaced with 100 μL of the dye loading solution Fluo-4 NW supplemented with probenecid 2.5 mM and incubated 1 h at 37 °C. The TRP ion channel activity was measured using POLASTAR plate reader (BMG Labtech, Ortenberg, Germany) setting the excitation wavelength at 485 nm and emission wavelength at 520 nm. The baseline fluorescence was recorded for 3 cycles before the addition of the vehicle, compound at different concentrations, and the antagonist, 10 μM AMTB for TRPM8 and Ruthenium red for TRPV1. Fluorescence intensity was recorded during 7 more cycles and agonist 100 μM menthol for TRPM8 or 10 μM capsaicin for TRPV1 was added. Fluorescence intensity was recorded during 10 more cycles.
Data analysis: The Z-factor was calculated in each assay using the following equation: […]. […] A decrease in menthol signal was expressed as a percentage of inhibition (%). All data are expressed as the mean ± standard deviation (SD). Data are expressed as the concentration exerting a half-maximal inhibition of agonist-induced (Ca^2+)^i elevation (IC50), which was calculated again using GraphPad Prism® software (GraphPad Prism 5, Graphpad Software, San Diego, CA, USA). The equation used was Y = Bottom + (Top − Bottom)/(1 + 10^((LogEC50-X) ^× HillSlope)), with the restriction of the minimum (Bottom = 0). All determinations were performed in triplicate (n = 3) in 3 independent experiments (n= 3).

[2] = target: T2, hTRPV1 (Homo sapiens, UniProt Q8NER1); test: Ca2+ fluorometric assay on HEK-293 cells stably expressing hTRPV1 (selectivity); assay type: cell-based
T2 construct: expressed in transfected cells
Procedure: as §1, with “unfreezing. […]” for “unfreezing.”
as §2, with “After 2 days the medium was replaced with 100 μL of the dye loading solution Fluo-4 NW supplemented with probenecid 2.5 mM and incubated 1 h at 37 °C.” left out, “cycles. […]” for “cycles.”

[3] = test system: oxaliplatin-induced cold allodynia; test: Oxaliplatin-induced cold hypersensitivity, acetone drop test; assay type: in vivo, mice; conditions: for effect on oxaliplatin-induced cold hypersensitivity: acetone drop test
Excerpt: TRPM8 antagonism is deeply related to analgesic in vivo effects and has been proposed as a suitable pharmacological strategy for the treatment of chronic pain, migraine, and painful syndromes. TRPM8 antagonists are particularly known to counteract the chemotherapy-induced neuropathic pain evoked by oxaliplatin [24, 27, 28, 29]. For these reasons we challenged compound 14 (BB 0322703) in vivo using the oxaliplatin-induced cold hypersensitivity assay. […]. […] In particular, a correspondence between the in vitro potency and the effective in vivo dose is typical for TRPM8 modulators in the oxaliplatin-induced neuropathic pain model. Extremely in-vitro potent compounds are effective also at lower doses […]. When in vitro potency is reduced, as also in the present case, in vivo efficacy decreases correspondingly. […] This is also the case of compound 14, which for these reasons could be considered a promising hit-compound for the development of new chemotypes as TRPM8 antagonists and a pharmacological tool for the treatment of neuropathic pain.
[…]. Care was taken to minimize the number of animals used and the pain and stress they experienced. All experimental procedures were approved by the Animal Care and Use Committees of Universidad Miguel Hernández and the regional government and were conducted according to the ethical principles of the International Association for the Study of Pain (IASP) for the evaluation of pain in conscious animals, the European Parliament and the Council Directive (2010/63/EU) and the Spanish law (RD 53/2013). Housing conditions were maintained at 21 ± 1 °C and 55 ± 15% relative humidity in a controlled light/dark cycle (light on between 8:00 a.m. and 8:00 p.m.). Animals had free access to food and water except during the habituation or the evaluation of nociceptive sensitivity. All parts of the study concerning animal care were performed under veterinary control.
Compound 14 (BB 0322703) was dissolved in 2.5% dimethyl sulfoxide (Merck, Darmstadt, Germany) and 2.5% cremophor EL (Merck) diluted in saline. […]
Oxaliplatin-induced neuropathic pain was induced by repeated oxaliplatin administration (Cat. No. 2623, Tocris, Bristol, UK). […] Nociceptive sensitivity was assessed before oxaliplatin treatment and 3 days after the last oxaliplatin administration.
Cold chemical thermal sensitivity was assessed using the acetone drop method as previously described. […] The responses were measured for 1 min with a digital stopwatch. For each measurement, the paw was sampled three times and the mean was calculated. […]
Behavioral data were analyzed with a repeated-measures ANOVA followed by a post-hoc Tukey test (GraphPad Prism 7.04, GraphPad Software Inc.). p-values lower than 0.05 were considered statistically significant.

[4] = target: T3, rTRPM8 (Rattus norvegicus, UniProt Q8R455); test: Whole-cell patch-clamp on HEK-rTRPM8 cells, menthol-evoked currents; assay type: cell-based
T3 construct: expressed in transfected cells
Procedure: Dose-response curves were then recorded to evaluate the compound relative potencies.
Whole-cell patch-clamp recordings from HEK-rTRPM8 cells were carried out 2 days after seeding on 12-mm Ø glass coverslips treated with poly-L-lysine solution (Sigma Aldrich, Madrid, Spain); the intracellular pipette solution contained (in mM) 150 NaCl, 5 EGTA, 3 MgCl2, and 10 HEPES, adjusted to pH 7.2 with NaOH, and the extracellular solution contained (in mM) 150 NaCl, 6 CsCl, 1.5 CaCl2, 1 MgCl2, 10 D-glucose and 10 HEPES, adjusted to pH 7.4 with NaOH. The TRPM8 activity was measured by the application of two pulses of 100 μM menthol in a time interval of 2 min and 30-s perfusion of the different compound concentrations before the second menthol pulse.
The series resistance was <10 MΩ and to minimize voltage errors was compensated to 60–80%. All measurements were performed at 24–25 °C. Cell capacitance was measured and used to estimate the current density (J, pA/pF).
For the whole-cell patch-clamp experiments, results are expressed as the percentage of the remaining activation of the TRPM8 channel. This is calculated by normalizing the ratio (p2/p1) of testing conditions to the ratio (p2/p1) of the control condition. The analysis of the data was performed by GraphPad 6.0, the ordinary one-way ANOVA analysis followed by the post hoc Bonferroni test established multiple comparisons, and the ROUT method (Q = 10%) identified data outliers. […] Paired or unpaired Student’s t-tests were also used for data comparison between two groups. All data are expressed as the mean ± standard error of the mean (SEM) (n = 12–15).

T2 sequence (Q8NER1 whole entry): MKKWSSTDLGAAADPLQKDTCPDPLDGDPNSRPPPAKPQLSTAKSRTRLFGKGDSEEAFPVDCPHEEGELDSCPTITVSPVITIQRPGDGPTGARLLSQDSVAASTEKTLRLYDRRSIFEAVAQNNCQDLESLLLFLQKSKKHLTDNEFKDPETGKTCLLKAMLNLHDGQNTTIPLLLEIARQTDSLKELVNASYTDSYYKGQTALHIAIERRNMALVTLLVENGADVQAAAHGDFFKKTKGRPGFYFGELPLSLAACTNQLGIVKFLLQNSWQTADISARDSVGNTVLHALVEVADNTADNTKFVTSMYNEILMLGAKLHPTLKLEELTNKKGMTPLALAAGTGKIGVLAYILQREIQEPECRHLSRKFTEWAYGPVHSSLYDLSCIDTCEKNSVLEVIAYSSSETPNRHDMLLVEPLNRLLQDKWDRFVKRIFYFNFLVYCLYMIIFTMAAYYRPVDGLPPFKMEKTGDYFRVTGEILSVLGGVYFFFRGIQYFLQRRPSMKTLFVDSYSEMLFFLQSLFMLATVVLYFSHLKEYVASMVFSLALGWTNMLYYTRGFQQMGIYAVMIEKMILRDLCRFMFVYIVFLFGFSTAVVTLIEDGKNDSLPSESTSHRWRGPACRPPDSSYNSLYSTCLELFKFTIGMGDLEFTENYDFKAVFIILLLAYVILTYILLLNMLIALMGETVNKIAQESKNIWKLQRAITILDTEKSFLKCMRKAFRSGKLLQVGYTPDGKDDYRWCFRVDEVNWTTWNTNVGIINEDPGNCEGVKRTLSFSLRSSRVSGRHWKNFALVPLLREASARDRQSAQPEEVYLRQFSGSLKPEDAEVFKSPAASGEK
T1 sequence (Q8R455 whole entry, canonical isoform): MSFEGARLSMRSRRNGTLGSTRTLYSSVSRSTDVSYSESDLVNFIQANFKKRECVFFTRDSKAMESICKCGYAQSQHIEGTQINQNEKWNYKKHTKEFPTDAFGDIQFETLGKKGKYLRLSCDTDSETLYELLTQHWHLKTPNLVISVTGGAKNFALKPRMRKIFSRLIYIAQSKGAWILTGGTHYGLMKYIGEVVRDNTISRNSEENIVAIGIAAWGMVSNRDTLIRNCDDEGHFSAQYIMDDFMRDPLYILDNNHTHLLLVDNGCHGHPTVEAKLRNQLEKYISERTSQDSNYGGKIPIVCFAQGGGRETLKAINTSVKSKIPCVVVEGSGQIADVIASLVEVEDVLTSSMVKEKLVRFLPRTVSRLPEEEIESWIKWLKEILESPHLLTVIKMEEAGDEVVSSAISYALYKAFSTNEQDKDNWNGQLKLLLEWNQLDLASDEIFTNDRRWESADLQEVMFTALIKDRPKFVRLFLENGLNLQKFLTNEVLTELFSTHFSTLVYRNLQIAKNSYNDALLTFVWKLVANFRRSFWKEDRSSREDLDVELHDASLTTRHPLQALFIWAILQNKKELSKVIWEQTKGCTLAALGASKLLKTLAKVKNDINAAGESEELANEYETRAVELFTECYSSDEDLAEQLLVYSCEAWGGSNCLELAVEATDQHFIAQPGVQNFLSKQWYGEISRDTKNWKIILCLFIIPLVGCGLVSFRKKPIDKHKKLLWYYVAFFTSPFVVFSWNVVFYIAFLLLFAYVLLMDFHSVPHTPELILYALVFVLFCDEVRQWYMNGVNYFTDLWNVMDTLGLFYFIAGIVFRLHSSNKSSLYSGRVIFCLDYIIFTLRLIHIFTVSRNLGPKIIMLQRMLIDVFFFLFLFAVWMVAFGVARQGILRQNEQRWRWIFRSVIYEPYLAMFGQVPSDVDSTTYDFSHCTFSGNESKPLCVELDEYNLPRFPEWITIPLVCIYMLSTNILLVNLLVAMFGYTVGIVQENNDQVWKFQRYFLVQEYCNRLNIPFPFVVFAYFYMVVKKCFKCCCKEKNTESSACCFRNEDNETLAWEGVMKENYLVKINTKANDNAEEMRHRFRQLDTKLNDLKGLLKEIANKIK
T3 sequence (Q8R455 whole entry): as the sequence (Q8R455 whole entry, canonical isoform) above

Row | IC50 [1] | potency compared with AMTB [1] | Efficacy [1] | Structure (SMILES) | other results
1 | 11.1 ± 1.32 µM | comparable potencies to AMTB | 95% | Cc1nn(C)c(Oc2ccc(Cl)cc2)c1-c1noc(C)c1C(=O)Nc1ccc(F)cc1 [Compound 5] | –
2 | 10.2 ± 1.31 µM | comparable potencies to AMTB | 85% | NCC1CCCN(CCc2cccc(F)c2)C1 (centres unmarked) [Compound 1] | –
3 | – | – | 100% | Cc1cccc(COc2ccccc2C(=O)N(CCCN)Cc2cccs2)c1 [AMTB, reference compound] | IC50 ([1]; 100 μM menthol, HEK293 rTRPM8, mean ± SD of at least three independent measurements, read-out: IC50): 7.15 ± 1.24 µM
4 | 5.52 ± 1.45 µM | comparable potencies to AMTB | 90% | COC(=O)C1=C(Nc2ccccc2F)SC(=Cc2ccccc2OCC#CC(C)(O)c2ccccn2)C1=O (centres unmarked) [Compound 19] | EC50 ([2]; agonist, normalized to capsaicine 10 μM = 100%, brackets 95% confidence interval, read-out: EC50 TRPV1 activation): 1.34 to 1.68 µM and 1.34 µM; Hill Slope, TRPV1 activation ([2]; fit of dose-response curve, Bottom = 0): 0.67
5 | 0.25 ± 0.15 µM | – | 100% | CCOC(=O)C(C)Nc1ccccc1C(=O)NC(C)c1ccccc1 [Compound 14, Ethyl (R)-N-[2-{[(1-Phenylethyl)amino]carbonyl}phenyl]-2-aminopropionic acid] | efficacy in cold allodinya model ([3]; 30 μM dose (abstract)): showing pharmacological efficacy; effect on oxaliplatin-induced cold hypersensitivity ([3]; mice, intraplantar 10 µg): did not show significant modification of their nociceptive sensitivity; duration of inhibition of cold hypersensitivity ([3]; mice, intraplantar dose of 30 µg): at least 1 h; effect on oxaliplatin-induced cold hypersensitivity ([3]; mice, intraplantar dose of 30 µg, p < 0.05 vs. Oxaliplatin): significant inhibition of this cold hypersensitivity; IC50 [4]: 1.25 ± 0.26 µM; effect on TRPM8 menthol-evoked currents ([4]; compound at 10 μM, 100 μM menthol): abolishing the TRPM8 menthol-evoked currents; Hill slope, patch-clamp inhibition ([4]; fit of dose-response curve, Top = 100): −1.23; IC50/potency fold difference versus AMTB ([1]; calcium fluorometric IC50 compared with reference AMTB): about 30 fold
